Reference: paper PMC6172068 (Cancer Science, 2018)

How the values were obtained:
[1] = test system: FLT3 receptors expressing FLT3-TKD D835 mutations; details: leukemic cells; cited from earlier work
[2] = test system: c-Kit; details: cited from earlier work
[3] = test system: FLT3 receptors expressing FLT3-ITD; details: leukemic cells; cited from earlier work
[4] = Plasma pharmacokinetics after single and multiple doses; assay type: in vivo, Japanese patients
[5] = 12-lead electrocardiogram QT interval; assay type: in vivo, Japanese patients
[6] = Urine pharmacokinetics; assay type: in vivo, Japanese patients
[7] = test system: anaplastic lymphoma kinase; details: preclinical studies; cited from earlier work
[8] = test system: leukocyte receptor tyrosine kinase; details: preclinical studies; cited from earlier work
[9] = one patient who received 20 mg/d

**Q.** Which “inhibition of FLT3 receptors expressing FLT3-TKD D835 mutations” value [1] does the source give for CCc1nc(C(N)=O)c(Nc2ccc(N3CCC(N4CCN(C)CC4)CC3)c(OC)c2)nc1NC1CCOCC1 [gilteritinib] here?
**A.** Its value is “strongly inhibited”.

**Q.** What about the “inhibitory effect on c-Kit” value [2] of the same compound?
**A.** Its value is “minimal inhibitory effect”.

**Q.** And the “inhibition of FLT3 receptors expressing FLT3-ITD” value [3]?
**A.** The value was “strongly inhibited”.

**Q.** And the “accumulation relative to baseline” value ([4]; after multiple dose administration)?
**A.** The value was roughly 8 fold.

**Q.** And the half-life ([4]; human, plasma, oral)?
**A.** The half-life was 84 to 126 h.

**Q.** And the Tmax ([4]; human, plasma, oral, Median tmax, after administration of single or multiple doses)?
**A.** The Tmax was 3 to 7 h.

**Q.** And the “achievement of steady-state gilteritinib plasma concentrations (mean trough concentrations)” value ([4]; once-daily dosing, Day 1 Cycle 1 through Day 1 Cycle 2)?
**A.** The value was “by Day 15 Cycle 1”.

**Q.** And the exposure versus dose ([4]; single-dose and multiple-dose)?
**A.** Its exposure versus dose is “increased in a dose‐proportional manner”.

**Q.** What about the “possible treatment-related prolongation of the QTcF interval” value ([5]; 1 patient, 40 mg/d dose cohort) of the same compound?
**A.** The value was 4.2%.

**Q.** What about the “prolonged QT interval identified as an AE” value ([5]; 2 patients (20 mg/d and 40 mg/d)) of the same compound?
**A.** The value was 8.3%.

**Q.** What about the “patients with maximum QTcF change of >30 ms” value ([5]; 5 of 22 evaluable patients) of the same compound?
**A.** The value was 22.7%.

**Q.** What about the “patients with prolonged QT interval of >450 ms (QTcF)” value ([5]; 9 of 24 patients) of the same compound?
**A.** The value was 37.5%.

**Q.** What about the “maximum postbaseline QTcF change from baseline” value [5, 9] of the same compound?
**A.** The value was 65 ms.

**Q.** What about the “mean maximum postbaseline QTcF” value [5, 9] of the same compound?
**A.** The value was 486 ms.

**Q.** What about the “mean percentage of unchanged excreted gilteritinib (urine)” value ([6]; after a single dose (data not shown)) of the same compound?
**A.** Its value is no more than 3.6%.

**Q.** And the “mean percentage of unchanged excreted gilteritinib (urine)” value ([6]; after multiple doses)?
**A.** The value was no more than 13.1%.

**Q.** What about the “inhibition of anaplastic lymphoma kinase” value [7] of the same compound?
**A.** The value was “robust inhibitor”.

**Q.** What about the “inhibition of leukocyte receptor tyrosine kinase” value [8] of the same compound?
**A.** Its value is “robust inhibitor”.
